In publication PMC4957904, “A novel validated assay to support the discovery of new anti-malarial gametocytocidal agents” (Malaria Journal, 2016):
Entries after “also recorded” stand apart in the source; their conditions may differ.

Legend:
[1] = system: late-stage (stage V) Plasmodium falciparum gametocytes; experiment: Cidal vs static activity assay by qPCR of late-stage gametocyte-specific mRNA (Pf77, ROM3, Pfg377); assay type: cell-based; settings: for cidal vs static effect against late-stage gametocytes (mRNA profile T∞ vs T48) / increase in Ct values, constant drug pressure (T∞) / decrease in mRNA levels (fold change), constant drug pressure (T∞) / increase in Ct values after drug removal (T48): Pf77 coding gene; for cidal vs static effect against late-stage gametocytes (mRNA profile T∞ vs T48): 144 h, concentrations of Table 1; for increase in Ct values, constant drug pressure (T∞) / decrease in mRNA levels (fold change), constant drug pressure (T∞): drug present for 144 h (T∞); for increase in Ct values, constant drug pressure (T∞): 20 × IC50 (EX 2 × IC50); for decrease in mRNA levels (fold change), constant drug pressure (T∞): from Ct increase; for reduction of mRNA levels after drug removal (T48): drug present only 48 h (T48), from Ct values; for increase in Ct values after drug removal (T48): drug present 48 h, then 96 h without drug (T48)
Experimental: The in vitro cidal or static anti-malarial activity of a compound against the later stages of gametocyte development at day 15 was assessed by measuring mRNA levels in P.falciparum over 144 h following drug treatment (Fig. 1). Drug activity assays were performed once in two independent cultures in T-75 flasks (Corning, NY, USA). Late-stage gametocytes were incubated with drug and 6 % haematocrit over 48 h. […] IC50 values were obtained from Lelievre et al.. To remove drug from the medium, parasite cultures were harvested and washed two times with 25 ml of RPMI. After drug removal, the parasites were cultured for a further 96 h with complete culture medium either without or with drug, at the same concentration as the initial incubation, to evaluate the reversibility of the compound effect. Medium was changed daily and two samples of 1000 µl of culture at 0, 48, 96, and 144 h were taken, centrifuged and immediately stored at −80 °C for further analysis. An untreated culture was used as a […].
Fig. 1 Scheme showing the cidal vs static in vitro activity assay against stage V Plasmodium falciparum gametocytes. Gametocytes were incubated for 48 h with 20 × IC50. After drug was washed out, the parasites were cultured for 96 h with complete culture medium with drug (A) or without drug (B) to evaluate the reversibility of compound effects. Two samples at t = 0, 48, 96, and 144 h were taken for RNA extraction, cDNA synthesis and qPCR amplification. Comparison of mRNA levels of treated P. falciparum cultures upon removal of the drug was used to assess the cidal vs static activity
For RNA extraction, RNeasy Plus mini kit (Qiagen, Hilden, Germany) was used according to the standard protocol supplied by the manufacturer. cDNA synthesis and SYBR green qPCR were performed in duplicate following the protocol already published by Bahamontes-Rosa et al.. Melting curve analysis was always performed at the end of each assay as a specificity control.
Threshold cycle (Ct) values from the measurement of the cDNA samples were obtained in duplicate using the 7000 and the 7500 fast system Software (Applied Biosystem) and further analysed using an excel data sheet (Microsoft Corporation). The average value was taken as the result and only duplicate Ct values within ±1 Ct difference were accepted. Ct values were used to quantify the relative amount of target PCR product present in each reaction; values are inversely proportional to the amount of template in the sample.
Gene expression during gametocytogenesis was represented with an adaptation of the method described by Livak and Schmittgen as (Ctgene−Ct18S rRNA)Ttime […](Ctgene−Ct18S rRNA)T0, considering the expression at time 0 (T0) as the basal expression and using the 18S rRNA gene as housekeeping gene. Absolute quantification (direct comparison of Ct values) was considered the most appropriate method for the drug activity assays.
Two different treatments were performed in parallel, one with constant drug pressure throughout the experiment (T∞), 144 h in total, and another in which the gametocyte cultures were exposed to the compound for only 48 h, the drug was washed out and then cultured for a further 96 h in fresh complete culture medium (T48) (see Fig. 1).

[2] = system: 3D7A P. falciparum mature gametocytes; parameters: method as in PMID 22514702; settings: ATP bioluminescence assay, read-out: P.f. gametocytes IC50; cited from earlier work
oocysts = system: oocysts; parameters: method as in PMID 26317851; settings: SMFA ex vivo, assayed at 2.5 µM; cited from earlier work
[3] = cytotoxicity, short-term resazurin-based reductase assay; cited from earlier work
[4] = system: late-stage (stage V) Plasmodium falciparum gametocytes; experiment: Cidal vs static activity assay by qPCR of late-stage gametocyte-specific mRNA (Pf77, ROM3, Pfg377); assay type: cell-based; settings: Pf77 coding gene; 48 h drug treatment only; TCMDC-125114 at 100 × IC50; CQ at 2, 20 and 125 × asexual IC50

SMILES | cidal vs static effect against late-stage gametocytes (mRNA profile T∞ vs T48) [1] | increase in Ct values, constant drug pressure (T∞) [1] | decrease in mRNA levels (fold change), constant drug pressure (T∞) [1] | IC50 [2] | reduction in the number of oocysts (oocysts) | TOX50 [3] | effect on Ct values at increasing concentrations, 48 h drug exposure (minimal gametocytocidal concentration) [4] | reduction of mRNA levels after drug removal (T48) [1] | increase in Ct values after drug removal (T48) [1]
COc1cccc(NC(=O)[C@H](C(C)C)n2c(=O)[nH]c3ccccc3c2=O)c1 [TCMDC-125133] | prolonged reduction in mRNA levels only when the drug was continuously present | 7 Ct | more than 100 fold | 540 nM | 100% | >50 µM | – | – | –
CN1CCOc2ccc(Nc3nnc(-c4cccc(-c5cccnc5)c4)o3)cc2C1 [TCMDC-134278] | – | – | – | > 5000 nM | – | 19.95 µM | – | – | –
CCNCc1cccc(-c2ccc3ccnc(N)c3c2)c1 [TCMDC-136869] | – | – | – | 1660 nM | – | 12.59 µM | – | – | –
CCN(CC)CCCC(C)Nc1ccnc2cc(Cl)ccc12 (centres unmarked) [Chloroquine, reference compound] | did not affect mature gametocytes | – | – | 23500 nM | – | – | no Ct increase | – | –
C[C@H]1[C@@H](O)O[C@@H]2O[C@@]3(C)CC[C@H]4[C@H](C)CC[C@@H]1[C@@]24OO3 [Dihydroartemisinin, reference compound] | static | at least 5 Ct | ≥ 100 fold | 3560 nM | – | >50 µM | – | less than tenfold | –
CC[C@H](C)[C@H](NC(=O)[C@H]([C@@H](C)CC)N(C)C(C)=O)C(=O)N[C@H](C(=O)N[C@@H](CC(C)C)C(=O)[C@@]1(C)CO1)[C@@H](C)O [Epoxomicin, reference compound] | static | at least 5 Ct | ≥ 100 fold | 0.5 nM | – | 0.003 µM | – | less than tenfold | –
CNC(=S)NN=C(C)c1ccccn1 [TCMDC-123475] | prolonged reduction in mRNA levels only when the drug was continuously present | 7 Ct | more than 100 fold | 9.8 nM | – | >25 µM | – | – | –
CN(C)c1ccc2nc3ccc(=[N+](C)C)cc-3sc2c1 [Methylene blue, reference compound] | cidal | – | – | 490 nM | – | 6.52 µM | – | – | –
C=C(NC(=O)C(=C)NC(=O)c1csc(C2=N[C@@H]3c4csc(n4)[C@H]4NC(=O)c5csc(n5)[C@H]([C@](C)(O)[C@@H](C)O)NC(=O)[C@H]5CSC(=N5)/C(=C/C)NC(=O)[C@H]([C@@H](C)O)NC(=O)c5csc(n5)[C@]3(CC2)NC(=O)[C@H](C)NC(=O)C(=C)NC(=O)[C@H](C)NC(=O)[C@H]([C@@H](C)CC)N[C@@H]2C=Cc3c([C@H](C)O)cc(nc3[C@H]2O)C(=O)O[C@@H]4C)n1)C(N)=O [Thiostrepton, reference compound] | static | at least 5 Ct | ≥ 100 fold | 900 nM | – | – | – | less than tenfold | –
CC(C)c1ccc(NC(=S)NN=Cc2ccccn2)cc1 [TCMDC-125520] | static; also recorded: prolonged reduction in mRNA levels only when the drug was continuously present | ~5 Ct | ca. 100 fold | 9.8 nM | – | 12.80 µM | – | less than tenfold | ≤ 2 Ct
Br.Cc1ccnc(Nc2nc(-c3ccccn3)cs2)c1 [TCMDC-125769] | static; also recorded: prolonged reduction in mRNA levels only when the drug was continuously present | ~5 Ct | ca. 100 fold | 40 nM | – | >25 µM | – | less than tenfold | ≤ 2 Ct
Cc1[nH]c2ccccc2c1C(=O)C(C)Sc1n[nH]c(-c2ccccc2Br)n1 (centres unmarked) [TCMDC-125114] | prolonged reduction in mRNA levels only when the drug was continuously present | 7 Ct | more than 100 fold | 130 nM | 100% | >50 µM | cidal activity | – | –
